Key:
[1] = 101.33 kPa, Liquid, Vibrating tube method
[2] = molar heat capacity at constant pressure; settings: 101.33 kPa, Liquid, Small sample (50 mg) DSC

ClCCCCCCBr [1-bromo-6-chlorohexane]
[1]
Settings | mass density [kg/m3]
288.15 K | 1345.17
298.15 K | 1336.47
308.15 K | 1327.17
318.15 K | 1316.45

BrCCCCCCCCCBr [1,9-dibromononane]
[2]
Settings | molar heat capacity at constant pressure [J/K/mol]
286.65 K | 330.9
288.15 K | 331.44
289.65 K | 332
291.15 K | 332.56
292.65 K | 333.14
294.15 K | 333.72
295.65 K | 334.3
297.15 K | 334.9
298.15 K | 335.29
298.65 K | 335.5
300.15 K | 336.1
301.65 K | 336.72
303.15 K | 337.34
304.65 K | 337.96
306.15 K | 338.59
307.65 K | 339.23
309.15 K | 339.87
310.65 K | 340.52
312.15 K | 341.17
313.65 K | 341.83
315.15 K | 342.49
316.65 K | 343.16
318.15 K | 343.83
319.65 K | 344.5
321.15 K | 345.18
322.65 K | 345.86
324.15 K | 346.54
325.65 K | 347.22
327.15 K | 347.91
328.65 K | 348.6
330.15 K | 349.3
331.65 K | 349.99
333.15 K | 350.69
334.65 K | 351.39
336.15 K | 352.08
337.65 K | 352.78
339.15 K | 353.49
340.65 K | 354.19
342.15 K | 354.89
343.65 K | 355.59
345.15 K | 356.29
346.65 K | 356.99
348.15 K | 357.69
349.65 K | 358.39
351.15 K | 359.09
352.65 K | 359.79
354.15 K | 360.49
355.15 K | 360.95

ClCCBr [1-bromo-2-chloroethane]
[1]
Settings | mass density [kg/m3]
288.15 K | 1742.45
298.15 K | 1726.56
308.15 K | 1710.57
318.15 K | 1693.61

ClCCCCBr [1-bromo-4-chlorobutane]
[1]
Settings | mass density [kg/m3]
288.15 K | 1496.19
298.15 K | 1485.12
308.15 K | 1473.33
318.15 K | 1460.96

ClCCCBr [1-bromo-3-chloropropane]
[1]
Settings | mass density [kg/m3]
288.15 K | 1601.96
298.15 K | 1588.17
308.15 K | 1574.87
318.15 K | 1560.65

BrCCCCCCCCBr [1,8-dibromooctane]
[2]
Settings | molar heat capacity at constant pressure [J/K/mol]
288.15 K | 302.23
289.65 K | 302.83
291.15 K | 303.43
292.65 K | 304.03
294.15 K | 304.63
295.65 K | 305.23
297.15 K | 305.83
298.15 K | 306.23
298.65 K | 306.43
300.15 K | 307.03
301.65 K | 307.63
303.15 K | 308.23
304.65 K | 308.82
306.15 K | 309.42
307.65 K | 310.02
309.15 K | 310.61
310.65 K | 311.21
312.15 K | 311.8
313.65 K | 312.39
315.15 K | 312.99
316.65 K | 313.58
318.15 K | 314.17
319.65 K | 314.76
321.15 K | 315.35
322.65 K | 315.94
324.15 K | 316.53
325.65 K | 317.12
327.15 K | 317.71
328.65 K | 318.3
330.15 K | 318.88
331.65 K | 319.47
333.15 K | 320.05
334.65 K | 320.64
336.15 K | 321.22
337.65 K | 321.81
339.15 K | 322.39
340.65 K | 322.97
342.15 K | 323.56
343.65 K | 324.14
345.15 K | 324.72
346.65 K | 325.3
348.15 K | 325.88
349.65 K | 326.46
351.15 K | 327.04
352.65 K | 327.62
354.15 K | 328.19
355.15 K | 328.58

BrCCCCCCCCCCCCBr [1,12-dibromododecane]
[2]
Settings | molar heat capacity at constant pressure [J/K/mol]
310.65 K | 432.62
312.15 K | 433.39
313.65 K | 434.17
315.15 K | 434.98
316.65 K | 435.79
318.15 K | 436.62
319.65 K | 437.46
321.15 K | 438.31
322.65 K | 439.17
324.15 K | 440.04
325.65 K | 440.91
327.15 K | 441.8
328.65 K | 442.68
330.15 K | 443.57
331.65 K | 444.47
333.15 K | 445.36
334.65 K | 446.26
336.15 K | 447.15
337.65 K | 448.04
339.15 K | 448.93
340.65 K | 449.82
342.15 K | 450.69
343.65 K | 451.57
345.15 K | 452.43
346.65 K | 453.29
348.15 K | 454.13
349.65 K | 454.96
351.15 K | 455.78
352.65 K | 456.59
354.15 K | 457.38
355.15 K | 457.9

ClCCCCCBr [1-bromo-5-chloropentane]
[1]
Settings | mass density [kg/m3]
288.15 K | 1409.7
298.15 K | 1399.37
308.15 K | 1388.77
318.15 K | 1377.96

BrCCCCCCCCCCCBr [1,11-dibromoundecane]
[2]
Settings | molar heat capacity at constant pressure [J/K/mol]
285.15 K | 389.4
286.65 K | 389.99
288.15 K | 390.59
289.65 K | 391.2
291.15 K | 391.83
292.65 K | 392.47
294.15 K | 393.12
295.65 K | 393.79
297.15 K | 394.47
298.15 K | 394.92
298.65 K | 395.16
300.15 K | 395.85
301.65 K | 396.56
303.15 K | 397.28
304.65 K | 398.01
306.15 K | 398.75
307.65 K | 399.5
309.15 K | 400.25
310.65 K | 401.02
312.15 K | 401.79
313.65 K | 402.57
315.15 K | 403.35
316.65 K | 404.15
318.15 K | 404.94
319.65 K | 405.75
321.15 K | 406.56
322.65 K | 407.37
324.15 K | 408.19
325.65 K | 409.01
327.15 K | 409.84
328.65 K | 410.67
330.15 K | 411.5
331.65 K | 412.33
333.15 K | 413.17
334.65 K | 414.01
336.15 K | 414.84
337.65 K | 415.68
339.15 K | 416.53
340.65 K | 417.37
342.15 K | 418.21
343.65 K | 419.04
345.15 K | 419.88
346.65 K | 420.72
348.15 K | 421.55
349.65 K | 422.38
351.15 K | 423.21
352.65 K | 424.04
354.15 K | 424.86
355.15 K | 425.41

Reference: the NIST ThermoML archive (doi:10.1021/je201002j)
